Results: PubChem BioAssay (NCI)
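Briefly, cells in 96-well plates were exposed to five compound concentrations for 48 h, and endpoints were estimated by linear interpolation. Abbreviation: GI50, concentration required for 50% inhibition of growth. TGI: total growth inhibition.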

How the values were obtained:
Assay in all cases: DTP human tumour cell line panel, 48 h
[1] = test system: SNB-19 CNS
[2] = test system: NCI-H226 lung
[3] = test system: SNB-75 CNS
[4] = test system: IGROV1 ovarian
[5] = test system: UO-31 renal
[6] = test system: HCT-15 colon
[7] = test system: KM12 colon
[8] = test system: HCC-2998 colon
[9] = test system: CCRF-CEM leukemia
[10] = test system: OVCAR-4 ovarian

Compound | TGI [1] [µM] | TGI [2] [µM] | TGI [3] [µM] | TGI [4] [µM] | TGI [5] [µM] | TGI [6] [µM] | TGI [7] [µM] | TGI [8] [µM] | TGI [9] [µM] | TGI [10] [µM] | GI50 [4] [µM] | GI50 [8] [µM] | GI50 [10] [µM] | GI50 [1] [µM] | GI50 [2] [µM] | GI50 [3] [µM] | GI50 [5] [µM] | GI50 [6] [µM] | GI50 [7] [µM] | GI50 [9] [µM]
OC(CC1CCCCN1)c1ccc2c(c1)oc1ccccc12 (stereo not given) | > 100 | > 100 | > 100 | > 100 | > 100 | > 100 | > 100 | > 100 | > 100 | > 100 | – | – | – | – | – | – | – | – | – | –
CN(C)CCNC(=O)c1cccc2c(=O)c3ccccc3oc12 | 97.7 | 76.5 | > 87.3 | > 100 | 55 | > 100 | > 100 | > 100 | > 100 | > 90.5 | – | – | – | – | – | – | – | – | – | –
Cc1n(CC(C)C)c2c([n+]1C)C(=O)c1ccccc1C2=O | 0.647 | 1.27 | 1.55 | 0.101 | 3.55 | 4.39 | 1.6 | 1.53 | 27 | 1.02 | – | – | – | – | – | – | – | – | – | –
CCOP(=Nc1ccc(N(C)C)cc1)(OCC)OCC | > 100 | – | > 100 | > 100 | > 100 | > 100 | > 100 | > 100 | – | > 100 | – | – | – | – | – | – | – | – | – | –
CCC1C[N+]23CCc4c([nH]c5ccccc45)C2CC1CC3 (stereo not given) | – | > 100 | > 100 | > 100 | > 100 | > 100 | > 100 | > 100 | > 100 | > 100 | – | – | – | – | – | – | – | – | – | –
CN(C)/C=C/C(=CC=[N+](C)C)/C=C/N(C)C | > 100 | > 100 | – | > 100 | > 100 | – | > 100 | > 100 | > 100 | > 100 | – | – | – | – | – | – | – | – | – | –
CC(=O)C(C(c1ccccc1)N1CCOCC1)N1CCOCC1 (stereo not given) | > 100 | > 100 | > 100 | > 100 | > 100 | > 100 | > 100 | 35.8 | > 100 | > 100 | – | – | – | – | – | – | – | – | – | –
Cc1ccc(S(=O)(=O)Nc2cccc3c(=O)[nH]cnc23)cc1 | > 100 | > 100 | > 100 | > 100 | > 100 | > 100 | > 100 | > 100 | > 100 | > 100 | – | – | – | – | – | – | – | – | – | –
CC1=C2C(O)C(C(C)C(=O)N(C)C)CCC2(C)C=CC1=O (stereo not given) | > 100 | > 100 | > 100 | > 100 | > 100 | > 100 | > 100 | > 100 | > 100 | > 100 | – | – | – | – | – | – | – | – | – | –
O=C1C=C(C2OC(CO)C(O)C2O)C(=O)N1 (stereo not given) | > 100 | > 100 | > 100 | > 100 | > 100 | > 100 | > 100 | > 100 | > 89.5 | > 100 | – | – | – | – | – | – | – | – | – | –
COc1cc2c(cc1O)c(O)cc1c3cc(OC)c(OC)cc3c[n+](C)c21 | > 100 | > 25.6 | > 100 | – | > 100 | > 100 | > 100 | > 100 | > 100 | > 100 | – | – | – | – | – | – | – | – | – | –
COC1OC(CS(=O)(=O)O)C(O)C(O)C1O (stereo not given) | > 100 | > 100 | > 100 | > 100 | > 100 | > 100 | > 100 | > 100 | > 100 | > 100 | – | – | – | – | – | – | – | – | – | –
O=C(c1ccccc1)c1ccc2n[se]nc2c1 | > 100 | – | > 100 | > 100 | > 100 | > 100 | > 100 | 73.7 | > 100 | > 100 | – | – | – | – | – | – | – | – | – | –
Cc1ccc2c(ccc(/C=C/c3ccc(O)c4ncccc34)[n+]2C)c1 | 36.9 | 46.5 | 43.7 | 45.6 | > 49.3 | > 100 | 33.3 | 20.7 | > 70 | 33.6 | – | – | – | – | – | – | – | – | – | –
CCOC(=O)Nc1cc2c(c(N)n1)N=C(c1ccc(OC)cc1)CN2 | 0.659 | – | 0.277 | 0.0741 | – | > 100 | > 100 | 0.178 | – | 49.4 | 0.0355 | 0.0185 | 11.4 | – | – | – | – | – | – | –
CCCC(C)c1ccc(OCCCCCCN2CCNCC2)cc1 (stereo not given) | 13.6 | 35.8 | 3.06 | 3.78 | 20.3 | 3.77 | 3.85 | 3.28 | 7.46 | – | 1.92 | 1.84 | – | 3.2 | 9.26 | 1.41 | 4.32 | 1.88 | 1.87 | 2.44
N#C[S-].[La+3].c1cnc2c(c1)ccc1cccnc12.c1cnc2c(c1)ccc1cccnc12.c1cnc2c(c1)ccc1cccnc12 | 20.9 | 4.63 | 29 | 19.2 | 10.5 | – | 22.6 | 18.8 | 2.58 | 16.8 | – | – | – | – | – | – | – | – | – | –
